# Assay results reported in patent US11234420B2, “Method for constructing PD-1 gene modified humanized animal model and use thereof” (priority 2016, dated 2022).
# Several values for one entry are separate records, joined by “and”; a condition that tells them apart may be missing. Equal values may be shown once. Entries after “also recorded” stand apart in the source; their conditions may differ.
# How the values were obtained:
# Format in all cases: in vivo
# [1] = tested on: mouse colon cancer cells MC38-hPDL1; assay: Combined use of Cisplatin with Keytruda or Tecentriq (Example 11), MC38-hPDL1 tumors in B-hPD-1 mice; details: for Tumor volume Day 8: Day 8, group division, Cisplatin 10 mg/kg intravenous once, Keytruda 0.1 mg/kg i.p. once per 3 days x6, Tecentriq 1 mg/kg i.p. once per 2 days x8; for Tumor volume Day 18 / Tumor volume Day 25: doses as Table 9 (Cisplatin 10, Keytruda 0.1, Tecentriq 1 mg/kg); for Tumor volume Day 25: Day 25, end-point; for Tumor free situation: end-point; for weight change compared among groups: mouse, in vivo
# Description: B-hPD-1 homozygous mice (4-6 weeks old) were taken, 5×10^5 mouse colon cancer cells MC38-hPDL1 were subcutaneously inoculated at right side (the same as Example 10). When the tumor volume was about 100 mm^3, the mice were randomly divided into 6 control groups or treatment groups (n=7/group). For the treatment group, one or two of the above 3 drugs were randomly injected, the dosages were 0.1-10 mg/kg, and a blank solvent was injected for the control group. The tumor volume was measured and the mice were weighed twice a week. Moreover, euthanasia was performed when the tumor volume of a single mouse reached 3000 mm^3.
# [2] = tested on: mouse colon cancer cells MC38; assay: Keytruda antibody efficacy at different dosages (Example 10, Experiment 2), MC38 tumors in B-hPD-1 mice; details: for Tumor volume Day 8: once per 3 days x6, Day 8, group division; for Tumor volume Day 32: Day 32, end-point; for Survival situation / Tumor free situation: end-point
# Description: (§1) B-hPD-1 homozygous mice (4-6 weeks old) were taken, mouse colon cancer cells MC38 or modified MC38-hPDL1 (i.e., PD-L1 gene humanized MC38 cells) were subcutaneously inoculated. When the tumor volume was about 100 mm^3, the mice were randomly divided into a control group or a treatment group. For the treatment group, one of the above 2 antibodies was randomly selected and administered at different dosages (0.3-25 mg/kg), and the same volume of a blank solvent was injected for the control group. The tumor volume was measured twice a week and the body weight were measured for each mouse. Moreover, euthanasia was performed when the tumor volume of a single mouse reached 3000 mm^3. The specific experiment scheme was as follows:
# Experiment 2 Keytruda antibody efficacy experiments at different dosages: after subcutaneous inoculation of MC38 cells to mice (5×10^5/100 μL PBS), the anti-human PD-1 antibody Keytruda was administered to the treatment group (n=6/group) through intraperitoneal injection at different dosages (0.3-10 mg/kg), and the same volume of a blank solvent was injected for the control group (n=10/group); the administration frequency was one administration per 3 days for a total of 6 administrations;
# [3] = tested on: mouse colon cancer cells MC38; assay: Keytruda antibody efficacy pre-experiment (Example 10, Experiment 1), MC38 tumors in B-hPD-1 mice
# Description: as §1
# Experiment 1 Keytruda antibody efficacy pre-experiment (n=6/group): after subcutaneous inoculation of MC38 cells to mice (5×10^5/100 μL PBS), the anti-human PD-1 antibody Keytruda was administered to the treatment group at 25 mg/kg through intraperitoneal injection, and the same volume of a blank solvent was injected for the control group; the administration frequency was one administration per 3 days for a total of 6 administrations;
# [4] = tested on: modified mouse colon cancer cells MC38-hPDL1; assay: Tecentriq antibody efficacy at different dosages (Example 10, Experiment 4), MC38-hPDL1 tumors in B-hPD-1 mice; details: for Tumor volume Day 8: once per 2 days x8, Day 8, group division; for Tumor volume Day 33: Day 33, end-point; for Survival situation / Tumor free situation: end-point
# Description: as §1
# Experiment 4 Tecentriq antibody efficacy experiments at different dosages (n=5/group): subcutaneous inoculation of MC38-PDL1 (2×10^5/100 μL PBS), the […] Tecentriq was administered to the treatment group through intraperitoneal injection at 1-10 mg/kg, and the same volume of a blank solvent was injected for the control group; the administration frequency was one administration per 2 days for a total of 8 administrations;
# [5] = tested on: modified mouse colon cancer cells MC38-hPDL1; assay: Tecentriq antibody efficacy pre-experiment (Example 10, Experiment 3), MC38-hPDL1 tumors in B-hPD-1 mice
# Description: as §1
# Experiment 3 Tecentriq antibody efficacy pre-experiment (n=7/group): subcutaneous inoculation of MC38-PDL1 (5×10^5/100 μL PBS), the […] Tecentriq was administered to the treatment group at 3 mg/kg through intraperitoneal injection, and the same volume of a blank solvent was injected for the control group; the administration frequency was one administration per week for a total of 2 weeks;
# [6] = tested on: mouse colon cancer cells MC38-hPDL1; assay: Screening anti-human PD-L1 antibodies (Example 12, Experiment 1), MC38-hPDL1 tumors in B-hPD-1 mice
# Description: Experiment 1: B-hPD-1 homozygous mice (4-6 weeks old) were taken, 5×10^5 mouse colon cancer cells MC38-hPDL1 were subcutaneously inoculated at right side (the same as Example 10). When the tumor volume was about 100 mm^3, the mice were randomly divided into the control group or treatment groups (n=5/group). For the treatment group, the positive control Tecentriq or one of two anti-human PD-L1 antibodies was randomly selected, all dosages were 3 mg/kg, and a blank solvent was injected for the control group. The administration manner was intraperitoneal injection, once per 2 days for a total of 8 times. The tumor volume was measured twice a week. Moreover, euthanasia was performed when the tumor volume of a single mouse reached 3000 mm^3.
compound,measurement,setting,value
Keytruda: humanized monoclonal antibody from Merck & Co.; human PD-1 antibody,Tumor volume Day 8,[1],98 ± 30 mm^3
same,Tumor volume Day 18,[1],606 ± 247 mm^3
same,Tumor volume Day 25,[1],1267±619 mm^3
same,TGITV %,[1]; doses as Table 9,27.7%
same,Tumor free situation,[1]; doses as Table 9,0/7
same,weight change compared among groups,[1],no significant difference in average weight increase
same,TGITV %,[2]; 0.3 mg/kg,78.2%
same,Tumor volume Day 8,[2]; 0.3 mg/kg i.p.,113 ± 28 mm^3
same,Tumor volume Day 22,[2]; 0.3 mg/kg,115 ± 116 mm^3
same,Tumor volume Day 32,[2]; 0.3 mg/kg,437±515 mm^3
same,Survival situation,[2]; 0.3 mg/kg,6/6
same,Tumor free situation,[2]; 0.3 mg/kg,1/6
same,TGITV %,[2]; 1 mg/kg,94.0%
same,Tumor volume Day 8,[2]; 1 mg/kg i.p.,112 ± 27 mm^3
same,Tumor volume Day 22,[2]; 1 mg/kg,89 ± 86 mm^3
same,Tumor volume Day 32,[2]; 1 mg/kg,201±186 mm^3
same,Survival situation,[2]; 1 mg/kg,6/6
same,Tumor free situation,[2]; 1 mg/kg,2/6
same,TGITV %,[2]; 3 mg/kg,89.0%
same,Tumor volume Day 8,[2]; 3 mg/kg i.p.,113 ± 25 mm^3
same,Tumor volume Day 22,[2]; 3 mg/kg,88 ± 94 mm^3
same,Tumor volume Day 32,[2]; 3 mg/kg,277±397 mm^3
same,Survival situation,[2]; 3 mg/kg,6/6
same,Tumor free situation,[2]; 3 mg/kg,2/6
same,TGITV %,[2]; 10 mg/kg,92.4%
same,Tumor volume Day 8,[2]; 10 mg/kg i.p.,110 ± 28 mm^3
same,Tumor volume Day 22,[2]; 10 mg/kg,117 ± 111 mm^3
same,Tumor volume Day 32,[2]; 10 mg/kg,223±270 mm^3
same,Survival situation,[2]; 10 mg/kg,6/6
same,Tumor free situation,[2]; 10 mg/kg,2/6
same,average tumor volume compared with control group,"[2]; 0.3, 1, 3 and 10 mg/kg, in words",tumor volume obviously smaller than that of the control group; also recorded: obviously smaller than that of the G1 control group
same,Tumor volume Day 6,"[3]; 25 mg/kg intraperitoneal, once per 3 days, 6 administrations, Day 6, group division",169 ± 24 mm3
same,Tumor volume Day 18,"[3]; 25 mg/kg intraperitoneal, once per 3 days, 6 administrations, Day 18",302 ± 86 mm3
same,Tumor volume Day 26,"[3]; 25 mg/kg intraperitoneal, once per 3 days, 6 administrations, Day 26, end-point",111±77 mm3
same,TGITV %,"[3]; 25 mg/kg, Tumor Growth Inhibition Value",102%
same,Survival situation,"[3]; 25 mg/kg, end-point Day 26",100%
same,Tumor free situation,"[3]; 25 mg/kg, end-point Day 26, tumor-free mice/mice",2 of the 6 and 2/6
same,average tumor volume compared with control group,"[3]; 25 mg/kg, in words",tumor volume obviously smaller than that of the control group; also recorded: obviously smaller than that of the G1 control group
same,toxicity on the animals,"[3]; 25 mg/kg, in words",does not have obvious toxicity on the animals
N.N.[Cl][Pt][Cl] [Cisplatin],Tumor volume Day 8,[1],98 ± 24 mm^3
same,Tumor volume Day 18,[1],401 ± 249 mm^3
same,Tumor volume Day 25,[1],612±510 mm^3
same,TGITV %,[1]; doses as Table 9,68.2%
same,tumor volume compared with control or single-drug groups,"[1]; doses as Table 9, in words",has certain tumor inhibitory effect
same,Tumor free situation,[1]; doses as Table 9,0/5
same,weight change compared among groups,[1],no significant difference in average weight increase
same,mice died,"[1]; n=7/group, by experiment end-point",2
Tecentriq: fully humanized monoclonal antibody from Genentech under Roche; human PD-L1 antibody,TGITV %,[4]; 1 mg/kg,61.2%
same,Tumor volume Day 8,[4]; 1 mg/kg i.p.,144 ± 31 mm^3
same,Tumor volume Day 22,[4]; 1 mg/kg,506 ± 289 mm^3
same,Tumor volume Day 33,[4]; 1 mg/kg,1044±432 mm^3
same,Survival situation,[4]; 1 mg/kg,5/5
same,Tumor free situation,[4]; 1 mg/kg,0/5
same,TGITV %,[4]; 3 mg/kg,93.7%
same,Tumor volume Day 8,[4]; 3 mg/kg i.p.,147 ± 38 mm^3
same,Tumor volume Day 22,[4]; 3 mg/kg,418 ± 268 mm^3
same,Tumor volume Day 33,[4]; 3 mg/kg,1028±963 mm^3
same,Survival situation,[4]; 3 mg/kg,5/5
same,Tumor free situation,[4]; 3 mg/kg,0/5
same,TGITV %,[4]; 10 mg/kg,97.2%
same,Tumor volume Day 8,[4]; 10 mg/kg i.p.,153 ± 62 mm^3
same,Tumor volume Day 22,[4]; 10 mg/kg,68 ± 75 mm^3
same,Tumor volume Day 33,[4]; 10 mg/kg,219±326 mm^3
same,Survival situation,[4]; 10 mg/kg,5/5
same,Tumor free situation,[4]; 10 mg/kg,3/5
same,average tumor volume compared with control group,"[4]; 1-10 mg/kg, in words",tumor volume obviously smaller than that of the control group; also recorded: obviously smaller than that of the G1 control group
same,Tumor volume Day 8,[1],98 ± 26 mm^3
same,Tumor volume Day 18,[1],688 ± 409 mm^3
same,Tumor volume Day 25,[1],1234±977 mm^3
same,TGITV %,[1]; doses as Table 9,29.8%
same,Tumor free situation,[1]; doses as Table 9,0/7
same,weight change compared among groups,[1],no significant difference in average weight increase
same,TGITV %,[5]; 3 mg/kg,79.7%
same,Tumor volume Day 6,"[5]; 3 mg/kg intraperitoneal, once per week, 2 weeks, Day 6, group division",88 ± 8 mm3
same,Tumor volume Day 17,"[5]; 3 mg/kg, Day 17",208 ± 72 mm3
same,Tumor volume Day 20,"[5]; 3 mg/kg, Day 20, end-point",237±89 mm3
same,Survival situation,"[5]; 3 mg/kg, end-point",7/7
same,Tumor free situation,"[5]; 3 mg/kg, end-point",no mouse cured in the treatment group and 0/7
same,average tumor volume compared with control group,"[5]; 3 mg/kg, in words",tumor volume obviously smaller than that of the control group
same,toxicity on the animals,"[5]; 3 mg/kg, in words",does not have obvious toxicity on the animals
same,TGITV %,[6]; 3 mg/kg,112.2%
same,Tumor volume Day 10,"[6]; 3 mg/kg i.p., once per 2 days x8, Day 10, group division",111 ± 25 mm^3
same,tumor volume / therapeutic effect compared with control and Tecentriq,"[6]; 3 mg/kg, same dosage and frequency, in words",significant difference in the volume of tumors between G2 or G3 and the control group (G1)
same,Tumor volume Day 20,"[6]; 3 mg/kg, Day 20",60 ± 70 mm^3
same,Tumor volume Day 27,"[6]; 3 mg/kg, Day 27, end-point",75±113 mm^3
same,Survival situation,"[6]; 3 mg/kg, end-point",5/5
same,Tumor free situation,"[6]; 3 mg/kg, end-point",0/5
same,animal weight / tolerance compared with control group,"[6]; 3 mg/kg, in words",no significant difference in average weight increase
